Consider four compounds from article PMC8305076, “Comprehensive Evaluation of Biological Effects of Pentathiepins on Various Human Cancer Cell Lines and Insights into Their Mode of Action” (International Journal of Molecular Sciences, 2021).

Series [1] concerns seven cancer cell lines. The arrangement: method as in PMID 32311219; key: no impact (0); weak impact (+); strong impact (++). The conditions noted are these: summary grade; first generation compound; cited from earlier work.
Series [2] deals with GR/CAT. The arrangement: method as in PMID 32311219; key: no impact (0); weak impact (+); strong impact (++). The conditions noted are these: summary grade; first generation compound; cited from earlier work.
For series [3], the system named is HAP-1, HAP-1.KO.GPx1, A2780, and Siso. More on the design: method as in PMID 32311219; key: no impact (0); weak impact (+); strong impact (++). Particulars: summary grade; first generation compound; cited from earlier work.
Series [4] concerns HAP-1, HAP-1.KO.GPx1, and Siso. The arrangement: method as in PMID 32311219; key: no impact (0); weak impact (+); strong impact (++). Particulars: summary grade; first generation compound; cited from earlier work.
The subject of series [5] is HAP-1, HAP-1.KO.GPx1, A2780 and Siso. More on the design: method as in PMID 32311219; key: no impact (0); weak impact (+); strong impact (++). The conditions noted are these: summary grade; first generation compound; cited from earlier work.
Series [6] concerns the target T1, bovine erythrocyte GPx1 (Bos taurus, UniProt P00435).
T1 construct: the isolated enzyme from bovine erythrocytes; purchased Sigma-Aldrich (Taufkirchen, Germany); host or cells: isolated from bovine erythrocytes
T1 sequence (P00435 1-205): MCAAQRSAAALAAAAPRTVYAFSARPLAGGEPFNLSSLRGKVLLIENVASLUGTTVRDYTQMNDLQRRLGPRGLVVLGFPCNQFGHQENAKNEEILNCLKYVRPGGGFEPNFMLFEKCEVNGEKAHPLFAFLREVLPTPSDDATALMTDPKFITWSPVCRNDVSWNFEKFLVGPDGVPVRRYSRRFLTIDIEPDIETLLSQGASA
The arrangement: method as in PMID 32311219; key to GPx1 inhibition: no impact (0); weak impact (+); strong impact (++). The conditions noted are these: cited from earlier work.

Series [7] has as its system pBR322 plasmid DNA. The arrangement: method as in PMID 32311219; key: no impact (0); weak impact (+); strong impact (++). The conditions noted are these: summary grade; first generation compound; cited from earlier work.
The test system of series [8] is panel of 14 human cancer cell lines. More on the design: method as in PMID 32311219; key: no impact (0); weak impact (+); strong impact (++). The conditions noted are these: summary grade; first generation compound; cited from earlier work.
Series [9] has as its system HAP-1, HAP-1.KO.GPx1, Siso and A2780 cells. More on the design: method as in PMID 32311219; key: no impact (0); weak impact (+); strong impact (++). The conditions noted are these: summary grade; first generation compound; cited from earlier work.
For series [10], the system named is panel of 14 human cancer cell lines. The arrangement: method as in PMID 32311219; key: no impact (0); weak impact (+); strong impact (++). Particulars: summary grade; first generation compound; cited from earlier work. The source holds these as a separate data set.
Series [11] has as its system HAP-1.KO.GPx1. As to the kind of experiment: annexin V-FITC/PI apoptosis assay. It counts as cell-based, human. The conditions noted are these: pentathiepins IC90, doxorubicin 0.5 µM, 24 h. On the procedure:
As reported in our earlier publication, a representative pentathiepin was capable of inducing apoptosis in cancer cell lines. Here, we tested compounds 1–6 for their ability to trigger this particular modality of cell death in a subset of four cell lines: HAP-1, HAP-1.KO.GPx1, A2780, and Siso. A flow cytometric assay was performed, allowing us to discriminate between viable, early, and late apoptotic cells (representative dot plots can be found in Figure S47). FITC-labeled annexin V was used to assess the externalization of phosphatidyl serine as a hallmark of early apoptosis induction. The addition of propidium iodide (PI) enabled the detection of late apoptotic cells as it only permeates porous cell membranes and exerts fluorescence once bound to double-stranded DNA.
The annexin V-FITC/PI assay, which discriminates between viable, early, and late apoptotic cells within a sample population, was performed according to the manufacturer’s instructions (Miltenyi Biotec, Teterow, Germany). Briefly, 125,000 cells were seeded in 2 mL per well of a 6-well plate, allowed to adhere overnight, and subsequently treated with the respective pentathiepin (IC90, see Table S4) diluted in 3 mL of medium. After incubation periods of 6, 24, or 48 h, the cells were harvested, washed with the provided binding buffer, and stained with the annexin V-FITC reagent for 20 min at room temperature (RT) in the dark. After another washing step, the pellet was resuspended, and PI was added immediately before flow cytometric measurement at λEx/Em = 488/525 ± 50 nm for FITC and λEx/Em = 488/655–730 nm for PI with the MACSquant Analyzer 10 (Miltenyi Biotec, Teterow, Germany).

Series [12] relates to PARP1 in HAP-1.KO.GPx1. In words: Western blot of cleaved PARP1. Format: cell-based, human. Particulars: pentathiepins IC90, doxorubicin 0.5 µM, 24 h. On the procedure:
(§1) In addition to general flow cytometric and microscopic analyses, Western blotting was performed to detect the apoptosis-relevant protein PARP1 (poly(ADP-ribose) polymerase 1) and its cleavage fragment (Figure 17 and Figures S29–S34). Full-length PARP1 (116 kDa) is involved in DNA repair, and a cleavage by caspases (fragment sizes 24 and 89 kDa) caused by caspase-3 and -7 is a hallmark of late apoptosis.
(§2) All detected specific bands were normalized to the total protein load per lane by the TGX stain-free gel system from Bio-Rad.
(§3) All Western blot analyses were performed with reagents, material, and devices purchased from Bio-Rad (Feldkirchen, Germany) if not stated otherwise. To obtain protein lysates, we seeded cells and treated them as described for the other methods. […] Cells were harvested by trypsinization and centrifugation for 5 min at 500× g. After a washing step with PBS, the cell pellet was resuspended in lysis buffer (Tris 50 mM (pH 7.4), 100 mM NaCl, 100 mM NaF, 5 mM EDTA, 0.2 mM Na3VO4, 0.1% Triton-X, and 1% protease inhibitor cocktail added immediately before use). Lysis was supported by incubating the samples for 10 min in an ultrasonic bath before centrifuging for 10 min at 18,000 × g and 4 °C. Protein quantification was performed via the Bradford method using ROTI®nanoquant reagent (Carl Roth GmbH, Karlsruhe, Germany) and bovine serum albumin as calibration standard. For electrophoretic separation, 15–40 µg of protein was loaded per well of a polyacrylamide gel (Mini- or Midi-Protean® TGX stain-free gel, Bio-Rad, Feldkirchen, Germany), and subsequent blotting was performed with Trans-Blot®Turbo™TransferPack Mini or Midi PVDF membranes from Bio-Rad (Feldkirchen, Germany). The membranes were blocked with a 10% non-fat milk powder solution in Tris-buffered saline (TBS; 2.42 g/L Tris, 8.48 g/L NaCl in water) plus 0.5% Tween-20 (TBST) for 1 h at RT. Incubation with primary antibodies took place over night at 4 °C in a 1:1000 dilution in TBST containing BSA (1%). The secondary antibodies conjugated to horse-radish peroxidase were diluted 1:10,000 in TBST and 1% BSA, and incubated for 4 h at RT. A detection step followed, applying Clarity™Western ECL substrate with subsequent imaging via the INTAS Advanced Fluorescence Imager. Between all incubation steps, the blots were washed three times for 10 min with TBST. The bands were quantified with the ImageLab software and normalized using the total protein quantification of the TGX stain-free gel system from Bio-Rad.

Series [13] has as its system PARP1 in HAP-1. In words: Western blot of cleaved PARP1. It counts as cell-based, human. Particulars: pentathiepins IC90, doxorubicin 0.5 µM, 24 h. On the procedure:
as §1, §2, §3

Series [14] deals with caspase-3 and -7 in HAP-1.KO.GPx1. As to the kind of experiment: luminescent caspase activity assay. Format: cell-based, human. Particulars: pentathiepins IC90, doxorubicin 0.5 µM, 24 h. From the text: (§4) To further corroborate this mode of cell death, we performed a luminescent caspase assay by measuring caspase-3 (cas-3) and caspase-7 (cas-7) activities (Figure 16). Both are executioner caspases that are present as zymogens (35 kDa) and become active after being cleaved (fragment sizes 17 and 19 kDa) by initiator caspases. Activated cas-3 and -7 in turn have several other substrates, including PARP1. In this assay, a precursor with a caspase-specific target sequence was converted into its luminescent form by active caspase-3 or -7, thereby emitting light that can be quantified.
(§5) To study the activation of the effector caspases -3 and -7, we performed a luminescence-based assay according to the manufacturer’s instructions (Caspase-Glo, Promega, Walldorf, Germany). Briefly, 5000 cells were seeded in 0.1 mL per well of a 96-well plate and allowed to adhere overnight. […] Afterwards, the standard protocol was followed, including a 30 min incubation time before measurement of luminescent signals by using the Spectramax i3x (Molecular Devices, Sunnyvale, CA, USA). After subtraction of the background luminescence the positive control and treatment conditions were related to the negative control.

Series [15] concerns caspase-3 and -7 in HAP-1. In words: luminescent caspase activity assay. It counts as cell-based, human. The conditions noted are these: pentathiepins IC90, doxorubicin 0.5 µM, 24 h.
Excerpt: as §4, §5

In series [16] the test system is caspase-3 and -7 in Siso. In words: luminescent caspase activity assay. Format: cell-based, human. Particulars: pentathiepins IC90, doxorubicin 0.5 µM, 24 h.
Excerpt: as §4, §5

Series [17] relates to caspase-3 and -7 in A2780. As to the kind of experiment: luminescent caspase activity assay. It counts as cell-based, human. Particulars: pentathiepins IC90, doxorubicin 0.5 µM, 24 h.
Excerpt: as §4, §5

Series [18] concerns Siso. As to the kind of experiment: alkaline Comet assay. Format: cell-based, human. Particulars: 25 µM pentathiepin or 20 µM H2O2, 15 min, 0 °C. From the text: (§6) Next, the potential of the pentathiepins 1–6 to damage nuclear DNA was investigated in the cell lines HAP-1, HAP-1.KO.GPx1, and Siso, with different expression levels of GPx1 and CAT (see Figure 7), by Comet Assay (Figure 12) with representative images in the Supplementary Materials (Figure S48).
(§7) With this assay, the intensity of DNA damage can be assessed on the level of a single cell, in case of the alkaline version detecting both single and double strand breaks as well as alkali-labile sites. The method presented here is an adaptation of the protocol published by Olive and Banath and based on the distinct electrophoretic mobility of damaged and intact genomic DNA. The latter has a low mobility; does thus not migrate in the electric field; and remains in a nucleoid shape after lysis, referred to as the comet head. In contrast, when strand breaks are created, free charged ends emerge and increase the electrophoretic mobility, prompting DNA segments to drift away from the comet head, thereby forming the so-called comet tail. As descriptor of still intact genomic DNA, the percentage of DNA in the comet head was selected. Per condition, 50,000 cells of either Siso, HAP-1, or HAP-1.KO.GPx1 were diluted in 1 mL of PBS and subsequently treated with either a 1% DMF aqueous solution as negative control, 20 µM of H2O2 as positive control, or 25 µM of pentathiepin for 15 min on ice to impair intracellular DNA repair mechanisms. Afterwards, 400 µL of the cell suspension was blended with 1.2 mL of a 1% low melting point agarose solution (40 °C) and smoothly distributed on agarose-precoated glass slides. Polymerization was finished after 3 min at RT, and the slides were horizontally submerged in alkaline lysis buffer (1.2 M NaCl, 0.1% N-lauryl-sarcosinate, 0.1 M Na-EDTA, 0.26 M NaOH) before storing them at 4 °C overnight. The slides were then rinsed three times in rinse/electrophoresis buffer (0.002 M Na-EDTA, 0.03 M NaOH) before electrophoretic separation was performed for 25 min at 0.6 V/cm. A neutralization step by adding distilled water was followed by staining the slides with 250 µL of an aqueous 10 µg/mL PI solution for 20 min. For visualization and image capturing, a DMi8 fluorescent microscope and LASX software (Leica Microsystems, Wetzlar, Germany) were used, and the comets scored with the help of CometScore2.0 (rexhoover.com). Per condition and replicate, at least 100 comets were analyzed to calculate a mean level of damage.

The subject of series [19] is HAP-1.KO.GPx1. In words: alkaline Comet assay. The conditions noted are these: 25 µM pentathiepin or 20 µM H2O2, 15 min, 0 °C. It counts as cell-based, human.
Excerpt: as §6, §7

The test system of series [20] is HAP-1. As to the kind of experiment: alkaline Comet assay. It counts as cell-based, human. Particulars: 25 µM pentathiepin or 20 µM H2O2, 15 min, 0 °C.
Excerpt: as §6, §7

In the case of `CCOc1c2c(c3cnc4cc(C)c(C)cc4n13)SSSSS2` [(c)], in series [1], the ROS induction result was “+”. In [2], the GR/CAT inhibition is on record as 0. Moreover, the Apoptosis entry in [3] is on record as “+”. In addition, in series [4], the Comet formation entry is on record as “+”. In addition, the Ferroptosis in [5] was 0. Further, the GPx1 inhibition result in series [6] (summary grade, first generation compound) is given as “+”. For the same compound, the DNA cleavage entry in series [7] was “+”. The Cytotoxicity entry in series [8] is “+”. Further, the Morphological changes entry in [9] was “+”. The Antiproliferative effect entry in series [10] was “+”.
For `COc1cccc2c1C(=O)c1c(O)c3c(c(O)c1C2=O)C[C@@](O)(C(=O)CO)C[C@@H]3O[C@H]1C[C@H](N)[C@H](O)[C@H](C)O1` [doxorubicin, reference compound], the early apoptotic cells entry in series [11] is on record as “about 50%”. The “cleaved PARP1” value in series [12] and in [13] was “detected to statistically significant extents” each time. The “caspase-3 and -7 activity vs solvent control” value was “activation of the caspase-3 and -7 was confirmed” in series [14]; “activation of the caspase-3 and -7 was confirmed” in series [15]; “activation of the caspase-3 and -7 was confirmed” in series [16]; “activation of the caspase-3 and -7 was confirmed” in series [17].
For `O=C(O)CC(S)C(=O)O` (stereo not drawn) [mercaptosuccinic acid], in series [6] (GPx1 inhibition), the IC50 was 5.9 µM.
As for `OO` [Compound H2O2, hydrogen peroxide], the figures for the “intact genomic DNA (Comet head)” value in series [18], in series [19] and in [20] were “about 10%”, 5% and 63%, respectively.
